According to patent US20060040876A1, “Modulation of peroxisome proliferator-activated receptors” (priority 2004, published 2006):

Experiments:
[1] = tested on: 15-keto prostaglandin-Δ^13-reductase; experiment: 15-keto prostaglandin-Δ^13-reductase inhibition assay; format: biochemical; conditions: different concentrations of inhibitor, incubated 2 hours at 37° C.
Protocol: Enzymatic activity was determined as follows. 10 μg of the recombinant mouse PGR-2 protein was incubated at 37° C. in a reaction buffer containing 0.1M Tris-HCl (pH 7.4), 0.5 mM NADPH, and 0.57 mM 15-keto PGE2. The reaction was conducted at 37° C. in the dark for 10 minutes and terminated by adding 700 μl of a buffer which contained 50 mM potassium hydrogen phthalate, pH 3.0, and 1% Tween 20. 200 μl of a color development reagent, which contained 790 μM indonitrotetrazolium chloride, 60 μM phenazene methosulfate, and 1% Tween 20, was added to oxidize any unreacted NADPH. Absorbance at 490 nm was measured by an ELISA plate reader. A standard curve was generated using reaction buffers containing serially diluted amounts of NADPH. […]
A series of compounds were tested for their inhibitory effects on 15-keto prostaglandin-Δ^13-reductase activity. The inhibition assay was performed following the procedure described above. Different concentrations of 15-keto prostaglandin-Δ^13-reductase inhibitors were added to the reaction mixture and incubated for 2 hours at 37° C.

[2] = tested on: Female diabetic mice (C57BLKS/J-m+/+Lep^db); experiment: Blood glucose levels in insulin-resistant, hyperglycemic diabetic mice; format: in vivo, mouse; conditions: 25 mg/kg intraperitoneally twice a day for two days
Protocol: The in vivo effect of another inhibitor, 2,2′-dihydroxychalcone, on glucose metabolism was also investigated. Female diabetic mice were obtained from the Jackson Laboratory (C57BLKS/J-m+/+Lep^db, 12 to 13 weeks old). These mice were characterized as insulin-resistant and hyperglycemic. 25 mg/kg of 2,2′-dihydroxychalcone (n=8) or placebo (n=4, final concentration against body fluid: 0.5% DMSO/1% ethanol) was injected intraperitoneally to the mice twice a day for two days. The mice were then fasted from the 48th hour through 52nd hour after the first injection. Blood samples were collected from the retro-orbital sinus before the first injection, and every two hours after two days of treatment. Blood glucose levels were measured by an electrode-type blood glucose meter (HORIBA, AntSense II, Japan).

[3] = tested on: 3T3-L1 cells; experiment: Glucose transport assay, uptake of 2-deoxy-D-[3H]glucose in differentiated 3T3-L1 cells; format: cell-based, mouse
Protocol: 3T3-L1 cells were induced to differentiate in the same manner as described above. A glucose transport assay was performed by measuring uptake of 2-deoxy-D-[3H]glucose as described by Fingar et al. See Fingar et al., Endocrinology 134:728-735. 1.67 μM of the inhibitor or 45 nM of a PPAR agonist, i.e., AVANDIA, was added to the cells. 10 μM cytochalasin-B was used to measure background glucose uptake levels.

[4] = biological target: T1, recombinant mouse PGR-2 protein (Mus musculus, UniProt Q8VDQ1); experiment: Substrate specificity and kinetics of recombinant PGR-2 (NADPH oxidation, absorbance at 490 nm); format: biochemical; conditions: for specific activity as substrate of PGR-2: 15-keto PGE2 replaced with the test substrate, 0.5 mM NADPH, 37° C., 10 minutes
T1 construct: GST (N); made in house; host or cells: E. coli
T1 sequence (Q8VDQ1 whole entry): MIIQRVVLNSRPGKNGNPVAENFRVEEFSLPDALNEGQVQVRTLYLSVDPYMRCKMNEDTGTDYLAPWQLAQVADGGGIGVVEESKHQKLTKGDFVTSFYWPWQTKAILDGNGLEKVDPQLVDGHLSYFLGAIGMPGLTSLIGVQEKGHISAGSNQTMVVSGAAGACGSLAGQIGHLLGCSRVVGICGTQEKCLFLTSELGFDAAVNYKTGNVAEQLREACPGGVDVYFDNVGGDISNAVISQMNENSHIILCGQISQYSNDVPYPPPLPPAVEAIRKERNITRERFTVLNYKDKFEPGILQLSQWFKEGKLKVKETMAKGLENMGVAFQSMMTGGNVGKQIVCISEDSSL
Protocol: Mouse PGR-2 was recombinantly expressed in E. coli as a GST fusion protein following standard procedures. The recombinant PGR-2 protein thus obtained was used to determine substrate specificity and enzymatic kinetics.
Enzymatic activity was determined as follows. 10 μg of the recombinant mouse PGR-2 protein was incubated at 37° C. in a reaction buffer containing 0.1M Tris-HCl (pH 7.4), 0.5 mM NADPH, and 0.57 mM 15-keto PGE2. The reaction was conducted at 37° C. in the dark for 10 minutes and terminated by adding 700 μl of a buffer which contained 50 mM potassium hydrogen phthalate, pH 3.0, and 1% Tween 20. 200 μl of a color development reagent, which contained 790 μM indonitrotetrazolium chloride, 60 μM phenazene methosulfate, and 1% Tween 20, was added to oxidize any unreacted NADPH. Absorbance at 490 nm was measured by an ELISA plate reader. A standard curve was generated using reaction buffers containing serially diluted amounts of NADPH.
Substrate specificity of PGR-2 was determined using the just-described procedure, except that 15-keto PGE2 was replaced with each of six prostaglandin substrates, each of three downstream metabolites, or leukotriene B4.
Unlike PGR/LTB4DH, PGR-2 used NADPH as a cofactor much more efficiently than NADH.

[5] = tested on: endogenous PPAR; experiment: Reporter gene assay of endogenous PPAR activity in differentiating 3T3-L1 cells; format: cell-based, mouse; conditions: 3T3-L1 cells induced to differentiate for two days, transfected with reporter gene
Protocol: (§1) The effect of prostaglandin on PPAR-gamma activity in adipocytes was investigated. After treatment with a medium that induces cell differentiation, 3T3-L1 cells were treated from day 2 to 4 during adipogenesis with 14 μM 15-keto PGE2, 13,14-dihydro-15-keto PGE2, 15-keto PGF2α, 13,14-dihydro-15-keto PGF2α, or 4.5 μM of BRL49653, a PPAR-gamma agonist. See Forman et al., Cell (1995) 83:803-812. At day 6, aggregates of lipid droplets were stained with oil-red O for observation. […] After being induced to differentiate for two days, the 3T3-L1 cells were transfected with a reporter gene.

[6] = biological target: T2, PPAR-gamma (Homo sapiens, UniProt P37231); experiment: Luciferase reporter with PPAR-gamma ligand-binding domain fused to GAL4 DNA-binding domain in 3T3-L1 cells; format: cell-based
T2 construct: expressed in transfected cells; host or cells: 3T3-L1 cells
T2 sequence (P37231 238-503 limits assumed): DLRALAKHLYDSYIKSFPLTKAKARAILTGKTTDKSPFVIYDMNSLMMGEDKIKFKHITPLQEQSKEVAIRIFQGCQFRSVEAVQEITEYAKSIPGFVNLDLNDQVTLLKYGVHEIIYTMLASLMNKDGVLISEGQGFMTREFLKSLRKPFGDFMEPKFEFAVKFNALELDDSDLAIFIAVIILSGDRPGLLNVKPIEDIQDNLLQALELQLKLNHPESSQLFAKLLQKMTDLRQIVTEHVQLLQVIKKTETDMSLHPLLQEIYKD
Description: A luciferase reporter gene was transfected to 3T3-L1 cells together with the ligand-binding domain of PPAR-alpha, PPAR-gamma or PPAR-delta fused to a yeast GAL4 DNA-binding domain.

[7] = tested on: IRS-1; experiment: IRS-1 protein expression in 3T3-L1 cells; format: cell-based, mouse
Description: (§2) Also examined was the ability of 15-keto PGE2 to induce protein expression of adipogenesis-specific, PPAR-gamma target genes, i.e., IRS-1 and -2.

[8] = tested on: PPAR-gamma1 and PPAR-gamma2; experiment: PPAR-gamma1 and PPAR-gamma2 protein expression in 3T3-L1 cells; format: cell-based, mouse; conditions: 15-keto PGE2 and MIX added with insulin and dexamethasone
[9] = tested on: 3T3-L1 cells; experiment: Adipogenesis in 3T3-L1 cells, lipid droplets stained with oil-red O; format: cell-based, mouse; conditions: 14 μM, day 2 to 4 during adipogenesis; stained at day 6
Protocol: as §1

[10] = tested on: aP2; experiment: aP2 expression in 3T3-L1 cells; format: cell-based, mouse; conditions: even in the absence of MIX
[11] = tested on: IRS-2; experiment: IRS-2 protein expression in 3T3-L1 cells; format: cell-based, mouse; conditions: in the presence of insulin and dexamethasone
Description: as §2

O=C(/C=C/c1ccccc1O)c1ccc(O)cc1O [2,2′,4′-trihydroxychalcone]
inhibition of 15-keto prostaglandin-Δ^13-reductase activity [1]: inhibited

O=C(/C=C/c1ccccc1O)c1cc(O)ccc1O [2,2′,5′-trihydroxychalcone]
inhibition of 15-keto prostaglandin-Δ^13-reductase activity [1]: inhibited

O=C(/C=C/c1ccccc1O)c1ccccc1O [2,2′-dihydroxychalcone]
blood glucose levels compared to placebo controls [2]: significant reduction
inhibition of 15-keto prostaglandin-Δ^13-reductase activity [1]: inhibited

O=C(/C=C/c1ccccc1)c1ccc(O)cc1O [2′,4′-dihydroxychalcone]
inhibition of 15-keto prostaglandin-Δ^13-reductase activity [1]: inhibited

O=C(/C=C/c1cccc(O)c1)c1ccccc1O [3,2′-dihydroxychalcone]
inhibition of 15-keto prostaglandin-Δ^13-reductase activity [1]: inhibited

O=c1c(O)c(-c2cccc(O)c2)oc2ccccc12 [3,3′-dihydroxyflavone]
inhibition of 15-keto prostaglandin-Δ^13-reductase activity [1]: inhibited

O=c1oc2ccccc2c(O)c1Cc1c(O)c2ccccc2oc1=O [3,3′-methylene-bis(4-hydroxycoumarin)]
inhibition of 15-keto prostaglandin-Δ^13-reductase activity [1]: inhibited
ability to enhance glucose uptake compared with AVANDIA ([3]; 1.67 μM inhibitor vs 45 nM AVANDIA): comparable to that of AVANDIA
increase of glucose uptake ([3]; 1.67 μM inhibitor, 100 nM insulin, differentiated 3T3-L1 cells): 30 folds

O=C(/C=C/c1ccc(O)cc1)c1ccccc1O [4,2′-dihydroxychalcone]
inhibition of 15-keto prostaglandin-Δ^13-reductase activity [1]: inhibited

O=c1cc(O)c2ccccc2o1 [4-hydroxycoumarin]
inhibition of 15-keto prostaglandin-Δ^13-reductase activity [1]: inhibited

O=c1cc(-c2ccccc2)oc2cc(O)cc(O)c12 [5,7-dihydroxyflavone]
inhibition of 15-keto prostaglandin-Δ^13-reductase activity [1]: inhibited

COc1cc(O)c(C(=O)/C=C/c2cc(Br)ccc2O)c(OC)c1 [5-bromo-2,2′-dihydroxy-4′,6′-dimethoxychalcone]
inhibition of 15-keto prostaglandin-Δ^13-reductase activity [1]: inhibited

CCCCC[C@H](O)/C=C/[C@@H]1[C@@H](CC(=O)CCCCC(=O)O)[C@@H](O)C[C@H]1O [6-keto PGF1α]
specific activity as substrate of PGR-2 [4]: no specific activity was detected

CCCCC[C@H](O)/C=C/[C@@H]1[C@@H](C/C=C\CCCC(=O)O)[C@@H](O)C[C@@H]1O [11b-PGF2α]
specific activity as substrate of PGR-2 [4]: no specific activity was detected

CCCCCC(=O)CCC1C(=O)CC(O)C1C/C=C\CCCC(=O)O (stereo not shown) [13,14-dihydro-15-keto PGD2]
specific activity as substrate of PGR-2 [4]: no specific activity was detected

CCCCCC(=O)CC[C@H]1[C@H](O)CC(=O)[C@@H]1C/C=C\CCCC(=O)O [13,14-dihydro-15-keto PGE2, reference compound]
endogenous PPAR activity (reporter gene) [5]: failed to increase PPAR activity
specific activity as substrate of PGR-2 [4]: no specific activity was detected

CCCCCC(=O)CC[C@@H]1[C@@H](C/C=C\CCCC(=O)O)[C@@H](O)C[C@H]1O [13,14-dihydro-15-keto PGF2α, reference compound]
endogenous PPAR activity (reporter gene) [5]: failed to increase PPAR activity
specific activity as substrate of PGR-2 [4]: no specific activity was detected

CCCCCC(=O)/C=C/[C@H]1[C@H](O)CC(=O)[C@@H]1CCCCCCC(=O)O [15-keto PGE1]
specific activity as substrate of PGR-2 [4]: reacted specifically

CCCCCC(=O)/C=C/[C@H]1[C@H](O)CC(=O)[C@@H]1C/C=C\CCCC(=O)O [15-keto PGE2]
activation of PPAR-gamma (GAL4-LBD luciferase reporter) [6]: activated
endogenous PPAR activity (reporter gene) [5]: enhanced endogenous PPAR activity significantly
amount of IRS-1 protein [7]: did not increase
efficiency of PGR-2 catalyzed conversion into 13,14-dihydro-15-keto prostaglandin ([4]; kinetics studies, recombinant PGR-2): most efficiently
PPAR-gamma1 and PPAR-gamma2 expression [8]: significantly enhanced
adipogenesis (lipid droplets, oil-red O) [9]: effectively enhanced adipogenesis at a level similar to BRL49653
expression of aP2 [10]: strongly induced
IRS-2 expression [11]: enhanced the expression to a level similar to MIX

CCCCCC(=O)/C=C/[C@@H]1[C@@H](CCCCCCC(=O)O)[C@@H](O)C[C@H]1O [15-keto PGF1α]
specific activity as substrate of PGR-2 [4]: reacted specifically

CCCCCC(=O)/C=C/[C@@H]1[C@@H](C/C=C\CCCC(=O)O)[C@@H](O)C[C@H]1O [15-keto PGF2α]
activation of PPAR-gamma (GAL4-LBD luciferase reporter) [6]: activated
endogenous PPAR activity (reporter gene) [5]: enhanced endogenous PPAR activity significantly
specific activity as substrate of PGR-2 [4]: reacted specifically

CCCCC[C@H](O)/C=C/[C@@H]1[C@@H](C/C=C\CCCC(=O)O)[C@H](O)C[C@H]1O [PGF2β]
specific activity as substrate of PGR-2 [4]: no specific activity was detected

O=c1c(O)c(-c2ccc(O)cc2)oc2cc(O)cc(O)c12 [kaempferol]
inhibition of 15-keto prostaglandin-Δ^13-reductase activity [1]: inhibited

CCCCC/C=C\C[C@@H](O)/C=C/C=C/C=C\[C@@H](O)CCCC(=O)O [leukotriene B4]
specific activity as substrate of PGR-2 [4]: no specific activity was detected

O=c1cc(-c2ccc(O)c(O)c2)oc2cc(O)cc(O)c12 [luteolin]
inhibition of 15-keto prostaglandin-Δ^13-reductase activity [1]: inhibited

O.O.O=c1c(O)c(-c2ccc(O)c(O)c2)oc2cc(O)cc(O)c12 [quercetin dehydrate]
inhibition of 15-keto prostaglandin-Δ^13-reductase activity [1]: inhibited

CC(=O)CC(c1ccccc1)c1c(O)c2ccccc2oc1=O (stereo not shown) [warfarin, reference compound]
inhibition of 15-keto prostaglandin-Δ^13-reductase activity [1]: inhibited
